In patent US12649751B2 (Arcus Biosciences, Inc., priority 2022, dated 2026):

molecular target: HPK1 (Homo sapiens, UniProt Q92918); assay: HPK1 Biochemical Assay (ADP-Glo luminescence; low ATP 10 μM or high ATP 200 μM); settings: 2 nM HPK1, 10 μM ATP; read-out: Biochemical Potency (low ATP)
Experimental: Dose-response assays were performed in Corning® Low Volume 384-well assay plates containing 100 nL of 22 serial 2-fold compound dilutions. Wells containing DMSO alone were used as negative control. A kinase mixture (5 μL) containing 2 nM HPK1 (or 5 nM for high ATP assay) in assay buffer (50 mM Hepes pH 7.4, 10 mM MgCl2, 0.01% Brij-15, 0.01% bovine serum albumin, and 1 mM dithiothreitol) was added to the assay plates and incubated at 25° C. for 1 hour. Wells without HPK1 were used as positive control. A […] of 10 μM ATP (or 200 μM for high ATP) and 0.2 μg/μL […] was then added to the wells, resulting in a 10 μL total reaction volume. Following incubation of the assay plates at 25° C. for 1 hour, 10 μL of ADP-Glo reagent was added to the wells and the plates were incubated at 25° C. for a further 40 minutes (or 1 hour for high ATP assay). Finally, 20 μL of Kinase Detection Reagent was added, and the plates were incubated for another 30 minutes at 25° C. An Envision plate reader was then used to detect the luminescence signals. IC50 values were determined by fitting the data to a standard 4-parameter logistic equation. The results are summarized in the Biochemical Potency columns of Tables 4 and 5 below (Biochemical Potency (high ATP); Biochemical Potency (low ATP)).

Chain of HPK1 (Q92918 whole entry, species assumed): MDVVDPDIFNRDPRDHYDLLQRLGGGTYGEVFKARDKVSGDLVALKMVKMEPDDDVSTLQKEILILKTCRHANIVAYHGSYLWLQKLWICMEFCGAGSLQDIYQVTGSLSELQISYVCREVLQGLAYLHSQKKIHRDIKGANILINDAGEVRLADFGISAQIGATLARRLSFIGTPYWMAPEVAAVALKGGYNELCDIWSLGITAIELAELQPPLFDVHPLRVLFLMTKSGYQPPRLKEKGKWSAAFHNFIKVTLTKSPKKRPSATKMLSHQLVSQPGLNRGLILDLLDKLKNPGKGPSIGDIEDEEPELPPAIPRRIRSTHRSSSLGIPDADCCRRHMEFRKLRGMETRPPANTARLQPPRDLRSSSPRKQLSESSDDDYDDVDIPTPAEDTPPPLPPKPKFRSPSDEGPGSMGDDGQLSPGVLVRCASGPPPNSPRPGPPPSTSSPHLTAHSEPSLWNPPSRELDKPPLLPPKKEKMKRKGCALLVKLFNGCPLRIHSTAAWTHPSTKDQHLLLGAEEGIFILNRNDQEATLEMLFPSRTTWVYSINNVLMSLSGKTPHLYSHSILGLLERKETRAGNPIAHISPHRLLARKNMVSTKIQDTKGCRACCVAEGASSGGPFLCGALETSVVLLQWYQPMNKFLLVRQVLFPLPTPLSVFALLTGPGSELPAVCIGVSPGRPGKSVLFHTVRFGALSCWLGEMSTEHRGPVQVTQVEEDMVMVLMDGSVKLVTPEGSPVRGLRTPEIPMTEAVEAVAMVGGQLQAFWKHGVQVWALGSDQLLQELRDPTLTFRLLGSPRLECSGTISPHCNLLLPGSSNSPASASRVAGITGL

`CN1C[C@@H]2C[C@H]1CN2c1cncc(Nc2cc3nc(-c4cccc(N5CCCC5=O)c4)sc3cn2)n1` [Example 143, 1-{3-[6-({6-[(1S,4S)-5-Methyl-2,5-diazabicyclo[2.2.1]heptan-2-yl]pyrazin-2-yl}amino)-[1,3]thiazolo[5,4-c]pyridin-2-yl]phenyl}pyrrolidin-2-one] and `CN1C[C@@H]2C[C@H]1CN2c1cncc(Nc2cc3nc(-c4cccc(C(=O)N5CCCC5)c4)sc3cn2)n1` [Example 147, 6-[(1S,4S)-5-Methyl-2,5-diazabicyclo[2.2.1]heptan-2-yl]-N-{2-[3-(pyrrolidine-1-carbonyl)phenyl]-[1,3]thiazolo[5,4-c]pyridin-6-yl}pyrazin-2-amine] cannot be ordered by IC50: under 100 nM for the first, under 100 nM for the second.

`CN1C[C@@H]2C[C@H]1CN2c1cncc(Nc2cc3nc(-c4ccncc4)sc3cn2)n1` [Example 146, 6-[(1S,4S)-5-Methyl-2,5-diazabicyclo[2.2.1]heptan-2-yl]-N-[2-(pyridin-4-yl)-[1,3]thiazolo[5,4-c]pyridin-6-yl]pyrazin-2-amine] and `CN1C[C@@H]2C[C@H]1CN2c1cncc(Nc2cc3nc(-c4ncco4)sc3cn2)n1` [Example 156, 6-[(1S,4S)-5-Methyl-2,5-diazabicyclo[2.2.1]heptan-2-yl]-N-[2-(1,3-oxazol-2-yl)-[1,3]thiazolo[5,4-c]pyridin-6-yl]pyrazin-2-amine] cannot be ordered by IC50: under 100 nM for the first, under 100 nM for the second.

`Cc1cccnc1-c1nc2cc(Nc3ccnc(N4C[C@@H]5C[C@H]4CN5)n3)ncc2s1` [Example 149, 2-[(1S,4S)-2,5-Diazabicyclo[2.2.1]heptan-2-yl]-N-[2-(3-methylpyridin-2-yl)-[1,3]thiazolo[5,4-c]pyridin-6-yl]pyrimidin-4-amine] and `Cc1cccnc1-c1nc2cc(Nc3ccnc(N4C[C@@H]5C[C@H]4CN5C)n3)ncc2s1` [Example 158, 2-[(1S,4S)-5-Methyl-2,5-diazabicyclo[2.2.1]heptan-2-yl]-N-[2-(3-methylpyridin-2-yl)-[1,3]thiazolo[5,4-c]pyridin-6-yl]pyrimidin-4-amine] cannot be ordered by IC50: under 100 nM for the first, under 100 nM for the second.

`Cc1cccnc1-c1nc2cc(Nc3cncc(N4C[C@@H](N)C[C@H]4CO)n3)ncc2s1` [Example 150, [(2S,4S)-4-Amino-1-(6-{[2-(3-methylpyridin-2-yl)-[1,3]thiazolo[5,4-c]pyridin-6-yl]amino}pyrazin-2-yl)pyrrolidin-2-yl]methanol] and `Cc1cccnc1-c1nc2cc(Nc3cnc(C)c(N4C[C@@H]5C[C@H]4CN5C)n3)ncc2s1` [Example 154, 5-Methyl-6-[(1S,4S)-5-methyl-2,5-diazabicyclo[2.2.1]heptan-2-yl]-N-[2-(3-methylpyridin-2-yl)-[1,3]thiazolo[5,4-c]pyridin-6-yl]pyrazin-2-amine] cannot be ordered by IC50: under 100 nM for the first, under 100 nM for the second.

`CN1C[C@@H]2C[C@H]1CN2c1cncc(Nc2cc3nc(-c4ccnc(C(C)(C)O)c4)sc3cn2)n1` [Example 151, 2-{4-[6-({6-[(1S,4S)-5-Methyl-2,5-diazabicyclo[2.2.1]heptan-2-yl]pyrazin-2-yl}amino)-[1,3]thiazolo[5,4-c]pyridin-2-yl]pyridin-2-yl}propan-2-ol] and `CN1C[C@@H]2C[C@H]1CN2c1cncc(Nc2cc3nc(-c4cccc(C(C)(C)O)c4)sc3cn2)n1` [Example 152, 2-{3-[6-({6-[(1S,4S)-5-Methyl-2,5-diazabicyclo[2.2.1]heptan-2-yl]pyrazin-2-yl}amino)-[1,3]thiazolo[5,4-c]pyridin-2-yl]phenyl}propan-2-ol] cannot be ordered by IC50: under 100 nM for the first, under 100 nM for the second.

`CN1C[C@@H]2C[C@H]1CN2c1nccc(Nc2cc3nc(-c4ncco4)sc3cn2)n1` [Example 157, 2-[(1S,4S)-5-Methyl-2,5-diazabicyclo[2.2.1]heptan-2-yl]-N-[2-(1,3-oxazol-2-yl)-[1,3]thiazolo[5,4-c]pyridin-6-yl]pyrimidin-4-amine] and `Cc1cc(Nc2cc3nc(-c4ccnn4C)sc3cn2)nc(O[C@H]2CCNC2)c1` [Example 181, 4-Methyl-N-[2-(1-methyl-1H-pyrazol-5-yl)-[1,3]thiazolo[5,4-c]pyridin-6-yl]-6-[(3S)-pyrrolidin-3-yloxy]pyridin-2-amine] cannot be ordered by IC50: under 100 nM for the first, under 100 nM for the second.

`Cc1cc(Nc2cc3nc(-c4ncccc4C)sc3cn2)nc(O[C@H]2CCCNC2)c1` [Example 161, 4-Methyl-N-[2-(3-methylpyridin-2-yl)-[1,3]thiazolo[5,4-c]pyridin-6-yl]-6-[(3S)-piperidin-3-yloxy]pyridin-2-amine] and `Cc1cc(Nc2cc3nc(-c4ncccc4C)sc3cn2)nc(OC2CCNCC2)c1` [Example 174, 4-Methyl-N-[2-(3-methylpyridin-2-yl)-[1,3]thiazolo[5,4-c]pyridin-6-yl]-6-(piperidin-4-yloxy)pyridin-2-amine] cannot be ordered by IC50: under 100 nM for the first, under 100 nM for the second.

`Cc1ccc(Nc2cc3nc(-c4ncccc4C)sc3cn2)nc1OC1CCNC1` (centres unmarked) [Example 162, 5-Methyl-N-[2-(3-methylpyridin-2-yl)-[1,3]thiazolo[5,4-c]pyridin-6-yl]-6-(pyrrolidin-3-yloxy)pyridin-2-amine] and `Cc1ccncc1-c1nc2cc(Nc3ccc(C)c(O[C@H]4CCNC4)n3)ncc2s1` [Example 173, 5-Methyl-N-[2-(4-methylpyridin-3-yl)-[1,3]thiazolo[5,4-c]pyridin-6-yl]-6-[(3S)-pyrrolidin-3-yloxy]pyridin-2-amine] cannot be ordered by IC50: under 100 nM for the first, under 100 nM for the second.

`Cc1cc(Nc2cc3nc(-c4cccc(C)n4)sc3cn2)nc(O[C@H]2CCNC2)c1` [Example 163, 4-Methyl-N-[2-(6-methylpyridin-2-yl)-[1,3]thiazolo[5,4-c]pyridin-6-yl]-6-[(3S)-pyrrolidin-3-yloxy]pyridin-2-amine] and `Cc1cc(Nc2cc3nc(-c4ccnc(C)c4)sc3cn2)nc(O[C@H]2CCNC2)c1` [Example 168, 4-Methyl-N-[2-(2-methylpyridin-4-yl)-[1,3]thiazolo[5,4-c]pyridin-6-yl]-6-[(3S)-pyrrolidin-3-yloxy]pyridin-2-amine] cannot be ordered by IC50: under 100 nM for the first, under 100 nM for the second.

`Cc1cc(Nc2cc3nc(-c4ccncc4)sc3cn2)nc(O[C@H]2CCNC2)c1` [Example 166, 4-Methyl-N-[2-(pyridin-4-yl)-[1,3]thiazolo[5,4-c]pyridin-6-yl]-6-[(3S)-pyrrolidin-3-yloxy]pyridin-2-amine] and `Cc1cc(Nc2cc3nc(-c4ccnc(N)c4)sc3cn2)nc(O[C@H]2CCNC2)c1` [Example 170, N-[2-(2-Aminopyridin-4-yl)-[1,3]thiazolo[5,4-c]pyridin-6-yl]-4-methyl-6-[(3S)-pyrrolidin-3-yloxy]pyridin-2-amine] cannot be ordered by IC50: under 100 nM for the first, under 100 nM for the second.

`Cc1cc(Nc2cc3nc(-c4ccncc4C)sc3cn2)nc(O[C@H]2CCNC2)c1` [Example 169, 4-Methyl-N-[2-(3-methylpyridin-4-yl)-[1,3]thiazolo[5,4-c]pyridin-6-yl]-6-[(3S)-pyrrolidin-3-yloxy]pyridin-2-amine] and `Cc1cc(Nc2cc3nc(-c4cccnc4C)sc3cn2)nc(O[C@H]2CCNC2)c1` [Example 179, 4-Methyl-N-[2-(2-methylpyridin-3-yl)-[1,3]thiazolo[5,4-c]pyridin-6-yl]-6-[(3S)-pyrrolidin-3-yloxy]pyridin-2-amine] cannot be ordered by IC50: under 100 nM for the first, under 100 nM for the second.

`Cc1cc(Nc2cc3nc(-c4ccnc(C)c4)sc3cn2)nc(OC2CNCC2(F)F)c1` (centres unmarked) [Example 171, 6-[(4,4-Difluoropyrrolidin-3-yl)oxy]-4-methyl-N-[2-(2-methylpyridin-4-yl)-[1,3]thiazolo[5,4-c]pyridin-6-yl]pyridin-2-amine] and `Cc1cc(Nc2cc3nc(-c4nccn4C)sc3cn2)nc(O[C@H]2CCNC2)c1` [Example 183, 4-Methyl-N-[2-(1-methyl-1H-imidazol-2-yl)-[1,3]thiazolo[5,4-c]pyridin-6-yl]-6-[(3S)-pyrrolidin-3-yloxy]pyridin-2-amine] cannot be ordered by IC50: under 100 nM for the first, under 100 nM for the second.

`Cc1cc(Nc2cc3nc(-c4cc(C#N)ccc4C)sc3cn2)nc(O[C@H]2CCNC2)c1` [Example 176, 4-Methyl-3-(6-{[4-methyl-6-((3S)-pyrrolidin-3-yloxy)pyridin-2-yl]amino}-[1,3]thiazolo[5,4-c]pyridin-2-yl)benzonitrile] and `Cc1cc(Nc2cc3nc(-c4ccc(C#N)cc4)sc3cn2)nc(O[C@H]2CCNC2)c1` [Example 187, 4-(6-{[4-Methyl-6-(pyrrolidin-3-yloxy)pyridin-2-yl]amino}-[1,3]thiazolo[5,4-c]pyridin-2-yl)benzonitrile] cannot be ordered by IC50: under 100 nM for the first, under 100 nM for the second.

`Cc1cc(Nc2cc3nc(C4CCOCC4)sc3cn2)nc(O[C@H]2CCNC2)c1` [Example 184, 4-Methyl-N-[2-(oxan-4-yl)-[1,3]thiazolo[5,4-c]pyridin-6-yl]-6-[(3S)-pyrrolidin-3-yloxy]pyridin-2-amine] and `Cc1cc(Nc2cc3nc(-c4ccc(S(C)(=O)=O)cc4)sc3cn2)nc(O[C@H]2CCNC2)c1` [Example 186, N-[2-(4-Methanesulfonylphenyl)-[1,3]thiazolo[5,4-c]pyridin-6-yl]-4-methyl-6-[(3S)-pyrrolidin-3-yloxy]pyridin-2-amine] cannot be ordered by IC50: under 100 nM for the first, under 100 nM for the second.

`Cc1cc(Nc2cc3nc(-c4cc5n(n4)CC(=O)N(C(C)C)CC5)sc3cn2)nc(O[C@H]2CCNC2)c1` [Example 185, 2-(6-{[4-Methyl-6-((3S)-pyrrolidin-3-yloxy)pyridin-2-yl]amino}-[1,3]thiazolo[5,4-c]pyridin-2-yl)-6-(propan-2-yl)-4H,5H,6H,7H,8H-pyrazolo[1,5-d][1,4]diazepin-7-one] was tested, and the IC50 was 100 to 1000 nM.
